Assay results published in patent US20110053954A1, “METHOD OF TREATMENT AND/OR PREVENTION OF BRAIN, SPINAL OR NERVE INJURY” (priority 2001, published 2011).

What was measured:
Format in all cases: in vivo, rat
Male Sprague Dawley rats [1] = test: Rotarod motor outcome after traumatic brain injury (impact acceleration model); settings: i.v. at 30 minutes after injury, NK-1 antagonist 10 mg/kg, MK801 0.3 mg/kg, compared with saline vehicle, 24 h to 10 days post-injury
Description: (§1) Male Sprague Dawley rats (400±25 g) were pre-trained on both the Rotarod and Barnes maze so as to assess the effects of the compound on post-traumatic motor and cognitive outcome, respectively. After one week of training, rats were severely injured using the impact acceleration model of traumatic brain injury (2 meters) and administered either of the NK-1 receptor antagonist N-(3,5-bis-trifluoromethylbenzyl)-N-methyl-6-(4-methyl-piperazin-1-yl)-4-o-tolyl-nicotinamide (10 mg/kg i.v., based on active, free base), the NMDA (N-methyl-D-aspartate) antagonist MK801 ((+)-10,11-dihydro-5-methyl-5H-dibenzo[a,d]cyclo-hepten-5,10-diyldiammonium maleate; Dizocilpine maleate; 0.3 mg/kg i.v., based on active, free base) or 0.9% saline vehicle (n=10/group) at 30 minutes after injury.
Over the next 9 days, there was a gradual improvement in motor performance, however the deficit was always significant compared to pre-injury.

Male Sprague Dawley rats [2] = test: Mortality after severe traumatic brain injury; settings: i.v. at 30 minutes after injury, saline 30%
Description: as §1
Mortality in rats in this severe model of injury is normally between 20 and 30%. In the saline treated animals, mortality was indeed 30%. […] This high mortality was consistent with this injury level being severe as confirmed by post mortem gross histological analysis of all brains.

Male Sprague Dawley rats [3] = test: Barnes maze cognitive outcome after traumatic brain injury; settings: i.v. at 30 minutes after injury
Description: as §1
Prior to injury, rats were trained to locate an escape tunnel (from aversive sound and light) within 20 sec. This time factor depends on the ability of the animal to learn and remember the location of the escape tunnel.

Male Sprague Dawley rats [4] = test: Respiratory pattern and weaning off the ventilator after brain injury; settings: brain injured rats
Description: as §1
This stability in respiration is thought to be due to both central effects on respiration and by the NK-1 receptor antagonist administered in the method of treatment of the present invention reducing pulmonary edema formation in brain injured animals.

Male Sprague Dawley rats [5] = test: Evans Blue extravasation as marker of blood brain barrier permeability after traumatic brain injury; settings: Evans Blue i.v. at 4.5 h after injury, circulating 30 mins, saline standardized to 100%
Description: Edema formation in the immediate post-traumatic period is thought to be vasogenic in origin, where increased permeability of the blood brain barrier permits protein extravasation and water accumulation in the brain interstitium. We used Evans Blue extravasation as a marker of blood brain permeability after traumatic brain injury and treatment with the NK-1 receptor antagonist N-(3,5-bis-trifluoromethyl-benzyl)-N-methyl-6-(4-methyl-piperazin-1-yl)-4-o-tolyl-nicotinamide.
At 4.5 h after induction of brain injury, animals were administered i.v. Evans Blue which was allowed to circulate for 30 mins. At that time point, animals were sacrificed and their brains removed for analysis of Evans Blue penetration. The amount of Evans Blue accumulation in the brains of saline treated animals was standardized to 100%. […] As anticipated, uninjured (sham) animals had no significant Evans Blue accumulation in brain tissue.

Male Sprague Dawley rats [6] = test: Exploratory behavior and self-grooming (post-traumatic depression) after brain injury; settings: brain injured rats, compared with non-injured animals

`Cc1ccccc1-c1cc(N2CCN(C)CC2)ncc1C(=O)N(C)Cc1cc(C(F)(F)F)cc(C(F)(F)F)c1` [N-(3,5-bis-trifluoromethyl-benzyl)-N-methyl-6-(4-methyl-piperazin-1-yl)-4-o-tolyl-nicotinamide] was tested, and the “motor outcome (Rotarod Motor Score) after brain injury” value (Male Sprague Dawley rats [1]) was “significantly better motor outcome”, the mortality (Male Sprague Dawley rats [2]) was 0% and the “latency to escape the aversive stimuli (Barnes Cognitive Score)” value (Male Sprague Dawley rats [3]; at 24 h / at any time point after injury, pre-injury within 20 sec) was “did not demonstrate an increased latency”. For the same compound, the “latency to escape the aversive stimuli, course over the ensuing 9 days” value (Male Sprague Dawley rats [3]; days 2-10 post-injury) was “improved with each assessment”, the “weaning off of the ventilator” value (Male Sprague Dawley rats [4]; compared with any other treatment group) was “far more quickly” and the respiratory pattern (Male Sprague Dawley rats [4]; compared with saline and MK801 treated counterparts) was “more stable respiratory pattern”. For the same compound, the “Evans Blue accumulation in brain relative to saline treated animals” value (Male Sprague Dawley rats [5]) was 18% and the “exploratory behavior and self-grooming” value (Male Sprague Dawley rats [6]) was “not significantly different from non-injured animals”.
